We go through 1 compound from patent publication US20150175974A1, “PRODUCING SOLIDS AND RELATED MOTHER LIQUORS” (Syngenta Participations AG, priority 2012, published 2015).

Each structure is given as a SMILES string. “And” between values parts separate entries of the source, which are not always exact repeats. Identical values can stand only once.

Series [1] in a line: Particle size distribution of crystallized TMX (Malvern Mastersizer). Format: physicochemical. As to the method:
An aqueous solution of TMX at a concentration of 11 mg/ml was prepared. The respective portion of TMX and water was added to an appropriately sized vessel and heated to 60° C. to dissolve the TMX. Once dissolved, phage particles having binding domains selected to bind to TMX were added to the achieve target loading set forth in the Table 1 below. The solution was allowed to cool to room temperature and aged until crystallization was observed. Crystalline products were separated from the liquor by filtration and particle size distribution was measured using a Malvern Mastersizer.

Series [2] in a line: Crystal shape of TMX crystallized with phage particles (optical and electron microscopy). The format is physicochemical. The following applies: TMX 11 mg/ml, phage loading C/2 to C (C=37 mg/ml), FIG. 1 and FIG. 2. How it is done: An aqueous solution of TMX at a concentration of 11 mg/ml was prepared. The respective portion of TMX and water was added to an appropriately sized vessel and heated to 60° C. to dissolve the TMX. […] Phage loading was a C, C/2, C/10, C/25, and C/100. The solution was allowed to cool to room temperature and aged until crystallization was observed. Crystalline products were separated from the liquor by filtration and characterized by microscopy.

Where [3] appears, read: average of the three measurements, TMX 11 mg/ml aqueous, cooled from 60° C.
[4] abbreviates: single measurements, TMX 11 mg/ml aqueous, dissolved at 60° C., cooled to room temperature, crystals filtered, listed as TMX control.

`CN1COCN(Cc2cnc(Cl)s2)/C1=N\[N+](=O)[O-]` [TMX, Thiamethoxam]: in series [1] (setting [3]), the “Size Dv (0.5) average” value was found to be 23.1057 μm and the “Size Dv (0.95) average” value amounted to 54.11 μm. Moreover, in series [1] (phage particles having binding domains selected to bind to TMX, C/25 and C/100), the “Particle size of TMX crystallized in the presence of phage particles versus control” value was “marked reduction”. In series [1] (setting [4]), the “Size Dv (0.5)” value was 23.378 μm and 22.048 μm and 23.891 μm; the “Size Dv (0.95)” value was 52.18 μm and 54.16 μm and 55.74 μm. Also, the Crystal shape entry in series [2] was “more bi-pyramidal shape”.
